Laboratory results published in patent US9695155B2, “Herbicidal substituted pyrimidinyloxy benzene compounds” (E. I. DU PONT DE NEMOURS AND COMPANY, priority 2013, dated 2017).

Legend:
wild poinsettia = experiment: Test E preemergence; assay type: in vivo, Euphorbia heterophylla; conditions: for Poinsettia, Wild plant response rating: scale 0 to 100 (0 no effect, 100 complete control); for Plant response rating, Poinsettia, Wild: 125 g ai/ha, scale 0 to 100, 0 no effect, 100 complete control
In short: (§1)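 Response was scored visually on a 0-100 scale (100 = complete control) versus controls after 14 to 21 days in the greenhouse. Test chemicals, formulated with surfactant in a non-phytotoxic solvent mixture, had been applied preemergence to seeds in silt loam soil or postemergence to 1- to 4-leaf plants in potting medium.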

waterhemp = experiment: Test E preemergence; assay type: in vivo, Amaranthus rudis; conditions: for Waterhemp plant response rating: scale 0 to 100 (0 no effect, 100 complete control); for Plant response rating, Waterhemp: 125 g ai/ha, scale 0 to 100, 0 no effect, 100 complete control
In short: as §1

ragweed = experiment: Test A preemergence; assay type: in vivo, Ambrosia elatior; conditions: for Ragweed plant response rating: 500 g ai/ha, 0 to 100 scale, 0 no effect, 100 complete control, approx. 10 days
In short: (§2)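 Pre- and postemergence greenhouse screen. Soil: loam + sand. Spray carrier: solvent mixture, non-phytotoxic, with surfactant. Post timing at 1–2 leaves, height 2–10 cm. Readout: visual injury on a 0–100 scale roughly 10 days after application, untreated plants as reference.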

Brazilian crabgrass = experiment: Test E preemergence; assay type: in vivo, Digitaria horizontalis; conditions: for Crabgrass, Brazil plant response rating: scale 0 to 100 (0 no effect, 100 complete control); for Plant response rating, Crabgrass, Brazil: 125 g ai/ha, scale 0 to 100, 0 no effect, 100 complete control
In short: as §1

kochia [1] = experiment: Test A postemergence; assay type: in vivo, Kochia scoparia; conditions: 0 to 100 scale where 0 is no effect and 100 is complete control
In short: as §2

goosegrass = experiment: Test E preemergence; assay type: in vivo, Eleusine indica; conditions: for Goosegrass plant response rating: scale 0 to 100 (0 no effect, 100 complete control); for Plant response rating, Goosegrass: 125 g ai/ha, scale 0 to 100, 0 no effect, 100 complete control
In short: as §1

hairy beggarticks = experiment: Test E preemergence; assay type: in vivo, Bidens pilosa; conditions: for Beggarticks plant response rating: scale 0 to 100 (0 no effect, 100 complete control); for Plant response rating, Beggarticks: scale 0 to 100, 0 no effect, 100 complete control
In short: as §1

kochia [2] = experiment: Test E preemergence; assay type: in vivo, Kochia scoparia; conditions: for Kochia plant response rating: scale 0 to 100 (0 no effect, 100 complete control); for Plant response rating, Kochia: 125 g ai/ha, scale 0 to 100, 0 no effect, 100 complete control
In short: as §1

lambsquarters = experiment: Test E preemergence; assay type: in vivo, Chenopodium album; conditions: for Lambsquarters plant response rating: scale 0 to 100 (0 no effect, 100 complete control); for Plant response rating, Lambsquarters: 125 g ai/ha, scale 0 to 100, 0 no effect, 100 complete control
In short: as §1

yellow nutsedge = experiment: Test E preemergence; assay type: in vivo, Cyperus esculentus; conditions: for Nutsedge, Yellow plant response rating: scale 0 to 100 (0 no effect, 100 complete control); for Plant response rating, Nutsedge, Yellow: 125 g ai/ha, scale 0 to 100, 0 no effect, 100 complete control
In short: as §1

field bindweed = experiment: Test E preemergence; assay type: in vivo, Convolvulus arvensis; conditions: for Field Bindweed plant response rating: scale 0 to 100 (0 no effect, 100 complete control); for Plant response rating, Field Bindweed: 125 g ai/ha, scale 0 to 100, 0 no effect, 100 complete control
In short: as §1

Italian ryegrass = experiment: Test A postemergence; assay type: in vivo, Lolium multiflorum; conditions: 0 to 100 scale where 0 is no effect and 100 is complete control
In short: as §2

N#Cc1cccc(Oc2ncc(F)cn2)c1-n1cc(I)cn1 [Compound 86]
Poinsettia, Wild plant response rating (wild poinsettia; 16 g ai/ha): 0
Poinsettia, Wild plant response rating (wild poinsettia; 31 g ai/ha): 10
Poinsettia, Wild plant response rating (wild poinsettia; 62 g ai/ha): 20
Plant response rating, Poinsettia, Wild (wild poinsettia): 65
Waterhemp plant response rating (waterhemp; 16 g ai/ha): 0
Waterhemp plant response rating (waterhemp; 31 g ai/ha): 70
Waterhemp plant response rating (waterhemp; 62 g ai/ha): 100
Plant response rating, Waterhemp (waterhemp): 100
Plant response rating, Ragweed (ragweed; 125 g ai/ha, 0 to 100 scale where 0 is no effect and 100 is complete control): 90
Ragweed plant response rating (ragweed): 100
Crabgrass, Brazil plant response rating (Brazilian crabgrass; 16 g ai/ha): 0
Crabgrass, Brazil plant response rating (Brazilian crabgrass; 31 g ai/ha): 0
Crabgrass, Brazil plant response rating (Brazilian crabgrass; 62 g ai/ha): 75
Plant response rating, Crabgrass, Brazil (Brazilian crabgrass): 95
Plant response rating, Kochia (kochia [1]; 125 g ai/ha): 100
Plant response rating, Kochia (kochia [1]; 500 g ai/ha): 100
Goosegrass plant response rating (goosegrass; 16 g ai/ha): 0
Goosegrass plant response rating (goosegrass; 31 g ai/ha): 0
Goosegrass plant response rating (goosegrass; 62 g ai/ha): 50
Plant response rating, Goosegrass (goosegrass): 50
Beggarticks plant response rating (hairy beggarticks; 16 g ai/ha, preemergence): 0
Beggarticks plant response rating (hairy beggarticks; 31 g ai/ha, preemergence): 0
Plant response rating, Beggarticks (hairy beggarticks; Preemergence, 62 g ai/ha): 35
Plant response rating, Beggarticks (hairy beggarticks; preemergence, 125 g ai/ha): 70
Kochia plant response rating (kochia [2]; 16 g ai/ha): 0
Kochia plant response rating (kochia [2]; 31 g ai/ha): 90
Kochia plant response rating (kochia [2]; 62 g ai/ha): 100
Plant response rating, Kochia (kochia [2]): 100
Lambsquarters plant response rating (lambsquarters; 16 g ai/ha): 0
Lambsquarters plant response rating (lambsquarters; 31 g ai/ha): 65
Lambsquarters plant response rating (lambsquarters; 62 g ai/ha): 100
Plant response rating, Lambsquarters (lambsquarters): 100
Nutsedge, Yellow plant response rating (yellow nutsedge; 16 g ai/ha): 0
Nutsedge, Yellow plant response rating (yellow nutsedge; 31 g ai/ha): 0
Nutsedge, Yellow plant response rating (yellow nutsedge; 62 g ai/ha): 0
Plant response rating, Nutsedge, Yellow (yellow nutsedge): 20
Field Bindweed plant response rating (field bindweed; 16 g ai/ha): 0
Field Bindweed plant response rating (field bindweed; 31 g ai/ha): 10
Field Bindweed plant response rating (field bindweed; 62 g ai/ha): 20
Plant response rating, Field Bindweed (field bindweed): 90
Plant response rating, Ryegrass, Italian (Italian ryegrass; 125 g ai/ha): 80
Plant response rating, Ryegrass, Italian (Italian ryegrass; 500 g ai/ha): 100

N#Cc1cccc(Oc2ncc(Br)cn2)c1-n1cc(I)cn1 [Compound 88]
Poinsettia, Wild plant response rating (wild poinsettia; 16 g ai/ha): 0
Poinsettia, Wild plant response rating (wild poinsettia; 31 g ai/ha): 0
Poinsettia, Wild plant response rating (wild poinsettia; 62 g ai/ha): 0
Plant response rating, Poinsettia, Wild (wild poinsettia): 0
Waterhemp plant response rating (waterhemp; 16 g ai/ha): 20
Waterhemp plant response rating (waterhemp; 31 g ai/ha): 35
Waterhemp plant response rating (waterhemp; 62 g ai/ha): 35
Plant response rating, Waterhemp (waterhemp): 100
Ragweed plant response rating (ragweed): 60
Crabgrass, Brazil plant response rating (Brazilian crabgrass; 16 g ai/ha): 0
Crabgrass, Brazil plant response rating (Brazilian crabgrass; 31 g ai/ha): 0
Crabgrass, Brazil plant response rating (Brazilian crabgrass; 62 g ai/ha): 60
Plant response rating, Crabgrass, Brazil (Brazilian crabgrass): 60
Plant response rating, Kochia (kochia [1]; 125 g ai/ha): 80
Plant response rating, Kochia (kochia [1]; 500 g ai/ha): 100
Goosegrass plant response rating (goosegrass; 16 g ai/ha): 0
Goosegrass plant response rating (goosegrass; 31 g ai/ha): 0
Goosegrass plant response rating (goosegrass; 62 g ai/ha): 5
Plant response rating, Goosegrass (goosegrass): 5
Beggarticks plant response rating (hairy beggarticks; 16 g ai/ha, preemergence): 0
Beggarticks plant response rating (hairy beggarticks; 31 g ai/ha, preemergence): 0
Plant response rating, Beggarticks (hairy beggarticks; Preemergence, 62 g ai/ha): 0
Plant response rating, Beggarticks (hairy beggarticks; preemergence, 125 g ai/ha): 0
Kochia plant response rating (kochia [2]; 16 g ai/ha): 0
Kochia plant response rating (kochia [2]; 31 g ai/ha): 0
Kochia plant response rating (kochia [2]; 62 g ai/ha): 35
Plant response rating, Kochia (kochia [2]): 50
Lambsquarters plant response rating (lambsquarters; 16 g ai/ha): 75
Lambsquarters plant response rating (lambsquarters; 31 g ai/ha): 50
Lambsquarters plant response rating (lambsquarters; 62 g ai/ha): 100
Plant response rating, Lambsquarters (lambsquarters): 100
Nutsedge, Yellow plant response rating (yellow nutsedge; 16 g ai/ha): 0
Nutsedge, Yellow plant response rating (yellow nutsedge; 31 g ai/ha): 0
Nutsedge, Yellow plant response rating (yellow nutsedge; 62 g ai/ha): 0
Plant response rating, Nutsedge, Yellow (yellow nutsedge): 0
Field Bindweed plant response rating (field bindweed; 16 g ai/ha): 0
Field Bindweed plant response rating (field bindweed; 31 g ai/ha): 0
Field Bindweed plant response rating (field bindweed; 62 g ai/ha): 0
Plant response rating, Field Bindweed (field bindweed): 50
Plant response rating, Ryegrass, Italian (Italian ryegrass; 125 g ai/ha): 50
Plant response rating, Ryegrass, Italian (Italian ryegrass; 500 g ai/ha): 90
